We go through 19 compounds from patent US8637499B2, “Benzoxazepines as inhibitors of PI3K/mTOR and methods of their use and manufacture” (Exelixis, Inc., priority 2009, dated 2014).

The IC50 is the concentration that gives 50% inhibition.

One assay has as its target mTORC1 (mTOR/GbL/Raptor) (Homo sapiens, UniProt P42345). The assay is described as follows: mTOR/GbL/Raptor (mTORC1) ELISA Assay. Type of assay: biochemical. Particulars: 0.2 nM mTORC1, 10 μM ATP, 50 nM NHis-tagged 4E-BP1, phosphorylation of 4E-BP1. A digest of the protocol:
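mTORC1 (0.2 nM) phosphorylated NHis-tagged 4E-BP1 (50 nM) with 10 μM ATP in 20 mM Hepes pH 7.2, 10 mM MnCl2, for 120 min at ambient temperature. Product was captured on Ni-chelate plates and detected with anti-phospho-4E-BP1 plus HRP secondary antibody by chemiluminescence.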
On the technique in general: In an ELISA, binding on a coated surface is turned into a signal by an enzyme label.

The target in a further assay is PI3Kα (Homo sapiens, UniProt P42336). The assay is described as follows: PI3K Biochemical Assays (ATP consumption, luciferase-luciferin chemiluminescence). The settings on record: PI3Kα 1.5 nM, ATP 1 μM, PIP2 10 μM; percent of ATP consumed. A digest of the protocol: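 Kinase activity read as percent ATP consumed via luciferase-luciferin chemiluminescence. 1.5 nM enzyme, 1 μM ATP, 10 μM PIP2 in 50 mM Tris pH 7.5, 1 mM EGTA, 10 mM MgCl2, 1 mM DTT, 0.03% CHAPS; ~2 h at ambient temperature, ATP consumption kept to 40-60%.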

The structures appear in SMILES notation. Read-outs that look alike come from different tables or passages of the source.

Chain of PI3Kα (P42336 whole entry): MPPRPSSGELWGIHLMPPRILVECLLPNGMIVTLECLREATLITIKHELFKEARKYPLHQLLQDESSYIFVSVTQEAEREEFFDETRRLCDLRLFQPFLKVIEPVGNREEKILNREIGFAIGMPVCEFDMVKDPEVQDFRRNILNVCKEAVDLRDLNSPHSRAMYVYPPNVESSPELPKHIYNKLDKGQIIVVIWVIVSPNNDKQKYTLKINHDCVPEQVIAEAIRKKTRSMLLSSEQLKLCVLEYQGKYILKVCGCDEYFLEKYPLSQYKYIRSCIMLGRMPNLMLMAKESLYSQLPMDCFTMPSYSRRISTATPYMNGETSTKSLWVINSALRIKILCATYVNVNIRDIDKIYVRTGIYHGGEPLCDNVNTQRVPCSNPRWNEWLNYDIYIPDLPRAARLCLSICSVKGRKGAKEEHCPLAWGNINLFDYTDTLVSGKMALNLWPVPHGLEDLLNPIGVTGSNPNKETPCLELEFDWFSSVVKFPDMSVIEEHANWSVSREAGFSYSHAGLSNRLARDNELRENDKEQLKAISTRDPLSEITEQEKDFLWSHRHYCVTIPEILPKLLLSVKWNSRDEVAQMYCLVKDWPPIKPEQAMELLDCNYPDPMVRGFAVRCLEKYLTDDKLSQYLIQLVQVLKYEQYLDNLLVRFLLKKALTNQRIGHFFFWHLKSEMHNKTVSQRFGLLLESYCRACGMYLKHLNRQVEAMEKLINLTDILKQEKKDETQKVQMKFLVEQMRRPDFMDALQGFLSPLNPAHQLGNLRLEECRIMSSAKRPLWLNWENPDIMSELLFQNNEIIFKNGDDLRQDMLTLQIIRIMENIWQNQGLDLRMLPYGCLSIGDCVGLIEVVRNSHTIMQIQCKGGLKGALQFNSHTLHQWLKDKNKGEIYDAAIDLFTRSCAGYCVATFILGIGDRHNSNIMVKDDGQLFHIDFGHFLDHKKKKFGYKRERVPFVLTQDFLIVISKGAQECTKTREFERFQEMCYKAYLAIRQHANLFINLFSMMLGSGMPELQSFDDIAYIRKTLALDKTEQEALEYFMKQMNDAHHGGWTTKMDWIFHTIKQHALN
Chain of PI3Kα (P27986 whole entry partner): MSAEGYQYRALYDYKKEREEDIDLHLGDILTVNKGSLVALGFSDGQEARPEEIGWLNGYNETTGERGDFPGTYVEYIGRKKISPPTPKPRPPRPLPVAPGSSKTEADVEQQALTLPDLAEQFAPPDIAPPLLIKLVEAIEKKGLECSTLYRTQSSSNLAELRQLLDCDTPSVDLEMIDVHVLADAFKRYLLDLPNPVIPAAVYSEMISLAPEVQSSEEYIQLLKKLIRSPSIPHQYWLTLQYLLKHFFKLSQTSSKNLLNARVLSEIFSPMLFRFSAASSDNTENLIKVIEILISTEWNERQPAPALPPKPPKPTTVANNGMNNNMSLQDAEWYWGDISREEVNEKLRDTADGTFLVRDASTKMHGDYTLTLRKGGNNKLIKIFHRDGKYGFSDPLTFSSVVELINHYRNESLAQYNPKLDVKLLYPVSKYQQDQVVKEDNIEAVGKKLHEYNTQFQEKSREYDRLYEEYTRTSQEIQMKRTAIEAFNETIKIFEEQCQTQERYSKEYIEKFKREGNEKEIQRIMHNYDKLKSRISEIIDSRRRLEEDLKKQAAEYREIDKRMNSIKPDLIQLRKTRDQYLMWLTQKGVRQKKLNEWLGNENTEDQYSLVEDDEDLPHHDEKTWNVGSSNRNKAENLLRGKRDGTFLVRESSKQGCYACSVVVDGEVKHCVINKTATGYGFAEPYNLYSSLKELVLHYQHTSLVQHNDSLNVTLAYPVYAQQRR

In the case of `CS(=O)(=O)Nc1cc(-c2ccc3c(c2)CN(C(=O)N2C4CCC2CC(O)(C(F)(F)F)C4)CCO3)cnc1Cl` (centres unmarked) [Compound 181, N-[2-chloro-5-(4-{[3-hydroxy-3-(trifluoromethyl)-8-azabicyclo[3.2.1]oct-8-yl]carbonyl}-2,3,4,5-tetrahydro-1,4-benzoxazepin-7-yl)pyridin-3-yl]methanesulfonamide], the IC50 was not above 50 nM at mTORC1 (mTOR/GbL/Raptor) (read-out: IC50) and not above 75 nM at PI3Kα.

As for `Cc1nc2ccc(-c3ccc4c(c3)CN(C(=O)N3CCCCC3c3cccc(Cl)c3)CCO4)cc2[nH]1` (centres unmarked) [Compound 124, 4-{[2-(3-chlorophenyl)piperidin-1-yl]carbonyl}-7-(2-methyl-1H-benzimidazol-6-yl)-2,3,4,5-tetrahydro-1,4-benzoxazepine], the IC50 is not above 50 nM on mTORC1 (mTOR/GbL/Raptor) (read-out: IC50) and 75 to 200 nM at PI3Kα.

For the compound `Cc1nc2ccc(-c3ccc4c(c3)CN(C(=O)N3CCN(c5ccc(C(F)(F)F)cn5)CC3)CCO4)cc2[nH]1` [Compound 150, 7-(2-methyl-1H-benzimidazol-6-yl)-4-({4-[5-(trifluoromethyl)pyridin-2-yl]piperazin-1-yl}carbonyl)-2,3,4,5-tetrahydro-1,4-benzoxazepine], the IC50 entry is “not active” at mTORC1 (mTOR/GbL/Raptor) and 500 to 1000 nM on PI3Kα.

With `Cc1nc2ccc(-c3ccc4c(c3)CN(C(=O)N3CCCCC3c3ccc(F)cc3)CCO4)cc2[nH]1` (centres unmarked) [Compound 73, 4-{[2-(4-fluorophenyl)piperidin-1-yl]carbonyl}-7-(2-methyl-1H-benzimidazol-6-yl)-2,3,4,5-tetrahydro-1,4-benzoxazepine], the figures for the IC50 at mTORC1 (mTOR/GbL/Raptor) (read-out: IC50) and against PI3Kα were not above 50 nM and not above 75 nM, respectively.

With `Cc1nc2ccc(-c3ccc4c(c3)CN(C(=O)N3CCN(c5ccc(F)cc5)CC3)CCO4)cc2[nH]1` [Compound 175, 4-{[4-(4-fluorophenyl)piperazin-1-yl]carbonyl}-7-(2-methyl-1H-benzimidazol-6-yl)-2,3,4,5-tetrahydro-1,4-benzoxazepine], the IC50 at mTORC1 (mTOR/GbL/Raptor) (read-out: IC50) lay in the range of 700 to 2600 nM; at PI3Kα, 1000 to 3000 nM.

With `CCC1CCCN(C(=O)N2CCOc3ccc(-c4ccc5nc(C)[nH]c5c4)cc3C2)C1` (centres unmarked) [Compound 72, 4-[(3-ethylpiperidin-1-yl)carbonyl]-7-(2-methyl-1H-benzimidazol-6-yl)-2,3,4,5-tetrahydro-1,4-benzoxazepine], the IC50 on mTORC1 (mTOR/GbL/Raptor) (read-out: IC50) lay within 50 to 250 nM; at PI3Kα it was 200 to 500 nM.

Regarding `O=C(N1CCC(CF)CC1)N1CCOc2ccc(-c3ccc(-c4ncc[nH]4)cc3)cc2C1` [Compound 58, 4-{[4-(fluoromethyl)piperidin-1-yl]carbonyl}-7-[4-(1H-imidazol-2-yl)phenyl]-2,3,4,5-tetrahydro-1,4-benzoxazepine], the IC50 is not above 50 nM on mTORC1 (mTOR/GbL/Raptor) (read-out: IC50) and 75 to 200 nM against PI3Kα.

For `N#CC1CCN(C(=O)N2CCOc3ccc(-c4ccc(-c5ncc[nH]5)cc4)cc3C2)CC1` [Compound 61, 1-({7-[4-(1H-imidazol-2-yl)phenyl]-2,3-dihydro-1,4-benzoxazepin-4(5H)-yl}carbonyl)piperidine-4-carbonitrile], the IC50 at mTORC1 (mTOR/GbL/Raptor) (read-out: IC50) is not above 50 nM; against PI3Kα, 75 to 200 nM.

With `CCN(Cc1ccccc1)C(=O)N1CCOc2ccc(-c3ccc4nc(C)[nH]c4c3)cc2C1` [Compound 177, N-ethyl-7-(2-methyl-1H-benzimidazol-6-yl)-N-(phenylmethyl)-2,3-dihydro-1,4-benzoxazepine-4(5H)-carboxamide], the results for the IC50 on mTORC1 (mTOR/GbL/Raptor) (read-out: IC50) and against PI3Kα were 50 to 250 nM and 200 to 500 nM, respectively.

Turning to `Cc1cccc(CN(C)C(=O)N2CCOc3ccc(-c4ccc5nc(C)[nH]c5c4)cc3C2)c1` [Compound 153, N-methyl-7-(2-methyl-1H-benzimidazol-6-yl)-N-[(3-methylphenyl)methyl]-2,3-dihydro-1,4-benzoxazepine-4(5H)-carboxamide], the IC50 at mTORC1 (mTOR/GbL/Raptor) (read-out: IC50) lay in the range of 250 to 700 nM; on PI3Kα it was 1000 to 3000 nM.

In the case of `O=C1CCN(C(=O)N2CCOc3ccc(-c4ccc(C(=O)NCC(F)F)cc4)cc3C2)C(c2cccc(F)c2)C1` (centres unmarked) [Compound 64, N-(2,2-difluoroethyl)-4-(4-{[2-(3-fluorophenyl)-4-oxopiperidin-1-yl]carbonyl}-2,3,4,5-tetrahydro-1,4-benzoxazepin-7-yl)benzamide], the IC50 at mTORC1 (mTOR/GbL/Raptor) (read-out: IC50) fell in the range of 50 to 250 nM; against PI3Kα it was 500 to 1000 nM.

For `Nc1nc2ncc(-c3ccc4c(c3)CN(C(=O)N3[C@@H]5CC[C@H]3C[C@](O)(C(F)(F)F)C5)CCO4)cc2[nH]1` [Compound 49, 8-{[7-(2-amino-1H-imidazo[4,5-b]pyridin-6-yl)-2,3-dihydro-1,4-benzoxazepin-4(5H)-yl]carbonyl}-3-(trifluoromethyl)-8-azabicyclo[3.2.1]octan-3-(endo)-ol], the IC50 is not above 50 nM at mTORC1 (mTOR/GbL/Raptor) (read-out: IC50) and not above 75 nM on PI3Kα.

Regarding `Cc1nc2ccc(-c3ccc4c(c3)CN(C(=O)N3CCC(F)(F)CC3)CCO4)cc2[nH]1` [Compound 67, 4-[(4,4-difluoropiperidin-1-yl)carbonyl]-7-(2-methyl-1H-benzimidazol-6-yl)-2,3,4,5-tetrahydro-1,4-benzoxazepine], the IC50 on mTORC1 (mTOR/GbL/Raptor) (read-out: IC50) was in the range of 250 to 700 nM; on PI3Kα it was 1000 to 3000 nM.

For `COC(=O)Nc1nc2ccc(-c3ccc4c(c3)CN(C(=O)N3CCCCC3c3ccc(F)cc3)CCO4)cc2[nH]1` (centres unmarked) [Compound 12, methyl [6-(4-{[2-(4-fluorophenyl)piperidin-1-yl]carbonyl}-2,3,4,5-tetrahydro-1,4-benzoxazepin-7-yl)-1H-benzimidazol-2-yl]carbamate], the IC50 was 50 to 250 nM on mTORC1 (mTOR/GbL/Raptor) (read-out: IC50) and not above 75 nM at PI3Kα.

Turning to `CCNc1nc2ccc(-c3ccc4c(c3)CN(C(=O)N3CCC(C(C)(F)F)CC3)CCO4)cc2[nH]1` [Compound 33, 6-(4-{[4-(1,1-difluoroethyl)piperidin-1-yl]carbonyl}-2,3,4,5-tetrahydro-1,4-benzoxazepin-7-yl)-N-ethyl-1H-benzimidazol-2-amine], the figures for the IC50 on mTORC1 (mTOR/GbL/Raptor) (read-out: IC50) and against PI3Kα were not above 50 nM and 200 to 500 nM, respectively.

Regarding `Cc1nc2ccc(-c3ccc4c(c3)CN(C(=O)N3CCC(=O)CC3c3ccc(F)c(F)c3)CCO4)cc2[nH]1` (centres unmarked) [Compound 121, 2-(3,4-difluorophenyl)-1-{[7-(2-methyl-1H-benzimidazol-6-yl)-2,3-dihydro-1,4-benzoxazepin-4(5H)-yl]carbonyl}piperidin-4-one], the IC50 was in the range of 50 to 250 nM at mTORC1 (mTOR/GbL/Raptor) (read-out: IC50) and 75 to 200 nM against PI3Kα.

Take `Cc1nc2ccc(-c3ccc4c(c3)CN(C(=O)N3CC[C@H](O)C[C@@H]3c3ccc(F)cc3)CCO4)cc2[nH]1` (racemic) [Compound 136, (±)-(2R,4S)-2-(4-fluorophenyl)-1-{[7-(2-methyl-1H-benzimidazol-6-yl)-2,3-dihydro-1,4-benzoxazepin-4(5H)-yl]carbonyl}piperidin-4-ol]: the results for the IC50 on mTORC1 (mTOR/GbL/Raptor) (read-out: IC50) and at PI3Kα were 50 to 250 nM and 500 to 1000 nM, respectively.

For `Cc1nc2ccc(-c3ccc4c(c3)CN(C(=O)N(C)CCc3ccccc3)CCO4)cc2[nH]1` [Compound 93, N-methyl-7-(2-methyl-1H-benzimidazol-6-yl)-N-(2-phenylethyl)-2,3-dihydro-1,4-benzoxazepine-4(5H)-carboxamide], the IC50 at mTORC1 (mTOR/GbL/Raptor) (read-out: IC50) fell in the range of 700 to 2600 nM; against PI3Kα, 1000 to 3000 nM.

For `Cc1nc2cc(-c3ccc4c(c3)CN(C(=O)N3C[C@H]5CC(C)C[C@H]5C3)CCO4)ccc2[nH]1` (stereo partly drawn) [Compound 90, 7-(2-methyl-1H-benzimidazol-5-yl)-4-{[(3aR,6aS)-5-methylhexahydrocyclopenta[c]pyrrol-2(1H)-yl]carbonyl}-2,3,4,5-tetrahydro-1,4-benzoxazepine], the IC50 at mTORC1 (mTOR/GbL/Raptor) (read-out: IC50) lay in the range of 50 to 250 nM; at PI3Kα, 200 to 500 nM.
